From US12516022B2, “Derivatives of aryl hydrocarbon receptor agonists” (AZORA THERAPEUTICS, INC., priority 2021, dated 2026)

Assay: Time course of conversion to indirubin in FaSSGF at 37° C.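 Further: compound incubated in fasted state simulated gastric fluid, species in samples quantified by UPLC-MS with UV (210–400 nm) and ELS detection.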
Assay type: physicochemical
Conditions: FaSSGF (Example 4; table title prints FaSSIF) 37° C.; for Conversion to indirubin: over a 24 hour period

SMILES | indirubin (15 min) | indirubin methylene alcohol (15 min) | starting material (prodrug compound) (15 min) | indirubin (30 min) | indirubin methylene alcohol (30 min) | starting material (prodrug compound) (30 min) | indirubin (1 h) | indirubin methylene alcohol (1 h) | starting material (prodrug compound) (1 h) | indirubin (2 h) | indirubin methylene alcohol (2 h) | starting material (prodrug compound) (2 h) | indirubin (24 h) | indirubin methylene alcohol (24 h) | starting material (prodrug compound) (24 h) | Conversion to indirubin
CN(C)C1CCN(CN2C(=O)/C(=C3\Nc4ccccc4C3=O)c3ccccc32)CC1 [drawing 272] | 51% | 5% | 41% | 55% | 5% | 36% | 44% | 10% | 46% | 44% | 10% | 46% | 61% | 1% | 31% | 60-80%
CC(=O)N1CCN(CN2C(=O)/C(=C3\Nc4ccccc4C3=O)c3ccccc32)CC1 [drawing 281] | 4% | 4% | 92% | 3% | 0% | 97% | 4% | 4% | 87% | 3% | 0% | 97% | 0% | 0% | 100% | 0-20%
O=C1/C(=C2/C(=O)N(CN3CCOCC3)c3ccccc32)Nc2ccccc21 [drawing 276] | 7% | 0% | 89% | 8% | 0% | 85% | 10% | 5% | 85% | 11% | 3% | 80% | 29% | 3% | 68% | 20-40%
O=C1/C(=C2/C(=O)N(CN3CCC(F)(F)CC3)c3ccccc32)Nc2ccccc21 [drawing 280] |  |  |  |  |  |  |  |  |  |  |  |  |  |  |  | 0-20%
CCN(CC)CN1C(=O)/C(=C2\Nc3ccccc3C2=O)c2ccccc21 [drawing 267] | 100% | 0% | 0% | 100% | 0% | 0% | 100% | 0% | 0% | 100% | 0% | 0% | 100% | 0% | 0% | 80-100%
O=C1/C(=C2/C(=O)N(C(=O)NC3CCOCC3)c3ccccc32)Nc2ccccc21 [drawing 278] | 7% | 0% | 69% | 12% | 0% | 61% | 11% | 0% | 82% | 9% | 0% | 58% | 10% | 0% | 86% | 0-20%
CN1CCN(CN2C(=O)/C(=C3\Nc4ccccc4C3=O)c3ccccc32)CC1 [drawing 273] | 23% | 0% | 75% | 18% | 0% | 76% | 24% | 0% | 74% | 24% | 0% | 76% | 41% | 0% | 58% | 40-60%
O=C1/C(=C2/C(=O)N(CO)c3ccccc32)Nc2ccccc21 [drawing 274] | 8% | 92% | 0% | 18% | 82% | 0% | 12% | 88% | 0% | 18% | 82% | 0% | 22% | 78% | 0% | 20-40%
O=C1/C(=C2/C(=O)N(CN3CCCC3)c3ccccc32)Nc2ccccc21 [drawing 270] | 100% | 0% | 0% | 100% | 0% | 0% | 100% | 0% | 0% | 100% | 0% | 0% | 99% | 1% | 0% | 80-100%
CNCCNC(=O)N1C(=O)/C(=C2\Nc3ccccc3C2=O)c2ccccc21.Cl [drawing 279] | 0% | 0% | 100% | 0% | 0% | 100% | 0% | 0% | 100% | 0% | 0% | 100% | 0% | 0% | 100% | 0-20%
CN(C)CCN(CCN(C)C)CN1C(=O)/C(=C2\Nc3ccccc3C2=O)c2ccccc21 [drawing 271] | 90% | 5% | 4% | 94% | 4% | 2% | 87% | 9% | 3% | 91% | 8% | 2% | 90% | 9% | 1% | 80-100%
O=C1/C(=C2/C(=O)N(CN3CCC3)c3ccccc32)Nc2ccccc21 [drawing 275] | 25% | 2% | 71% | 26% | 4% | 70% | 25% | 2% | 71% | 24% | 2% | 71% | 23% | 3% | 74% | 20-40%
